Measurements: patent US8975417B2, “Pyrazolopyrrolidine derivatives and their use in the treatment of disease” (Novartis AG, priority 2013, dated 2015)
pIC50: −log10 of the molar value.

Key:
[1] = tested on: THP-1 cells; assay: Cell growth inhibition assay (CellTiter-Glo), THP-1; type: cell-based; details: Homo sapiens, read-out: THP-1 TGI
Method: (§1) Cell Growth Inhibition Assay
(§2) The human leukemia cell lines MV-4-11, THP-1 and K-562 were employed to characterize the effect of BET inhibitors on cellular proliferation and viability. Cells were obtained from the American Type Culture Collection (ATCC) and cultured at 37° C. in a humidified 5% CO2 incubator in the following media: MV-4-11: DMEM high glucose (Animed #1-26F01-I), 10% FCS (Animed #2-01F26-I), 4 mM L-Glutamine (Animed #5-10K50), 1 mM Sodium Pyruvate (Animed # G03625P), 1× Penicillin-Streptomycin (Animed # F12478P); K-562: Iscove's MEM (Animed #1-28F16-I), 10% FCS (Animed #2-01F26-I), 4 mM L-Glutamine (Animed #5-10K50), 1× Penicillin-Streptomycin (Animed # F12478P); THP-1: RPMI-1640 (Animed #1-41F01-I), 10% FCS (Animed #2-01F26-I), 2 mM L-Glutamine (Animed #5-10K50), 10 mM HEPES (Animed #5-31F100), 1 mM Sodium Pyruvate (Animed # G03625P), 1× Penicillin-Streptomycin (Animed # F12478P). The AML lines MV-4-11 and THP-1 are very sensitive to BET inhibitors and show massive cell death upon BET inhibition (Zuber et al., Nature, 478 (2011), 524-8). Compound-mediated suppression of cell proliferation/viability was assessed by quantification of cellular ATP levels using the CellTiter-Glo (CTG) reagent (Promega). Briefly, cells were seeded in 20 μl fresh medium into 384-well plates, followed by addition of 5 μL medium containing compound dilutions at 5-fold their final intended concentration. Dose-response effects were assessed by 3-fold serial dilutions of the test compound, starting at 10 μM. Following incubation of the cells for days at 37° C. and 5% CO2, the effect of inhibitors on cell viability was quantified following addition of 20 μl CTG and luminescence quantification (integration time: 100 ms) as per vendor manual, using a correspondingly equipped Tecan M200 multi-mode platereader (TECAN, Switzerland). For data analysis, the assay background value determined in wells containing medium, but no cells, was subtracted from all data points. To enable differentiation of cytotoxic from cytostatic compounds, the number of viable cells is assessed relative to that observed at the time of compound addition using a separate cell plate (day 0). The effect of a particular test compound concentration on cell proliferation/viability is expressed as percentage of the background- and day 0-corrected luminescence reading obtained for cells treated with vehicle only (DMSO, 0.1% final concentration), which is set as 100%, whereas that luminescence reading for wells containing medium is set as −100%. Compound concentrations leading to half-maximal (IC50) and total growth inhibition (TGI) were determined using standard four parameter curve fitting.

[2] = target: His-CREBBP (1081-1197) bromodomain (Homo sapiens (Human), UniProt Q92793); assay: AlphaScreen in-vitro binding assay for CREBBP; details: biochemical
Outline: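 Ni-chelate acceptor and streptavidin donor beads (45 µg/mL each, in 50 mM HEPES pH 7.5, 150 mM NaCl, 0.02% BSA) were then added for 60 min at room temperature. IC50 came from 8-point non-linear regression.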

[3] = tested on: K-562 cells; assay: Cell growth inhibition assay (CellTiter-Glo), K-562; type: cell-based, human; details: Homo sapiens, K562, read-out: K-562 TGI
Method: as §1, §2

[4] = tested on: MV-4-11 cells; assay: Cell growth inhibition assay (CellTiter-Glo), MV-4-11; type: cell-based; details: Homo sapiens, MV4-11, read-out: MV-4-11 TGI
Method: as §1, §2

[5] = target: His-Brd3(20-477) (Homo sapiens (Human), UniProt Q15059); assay: TR-FRET in-vitro binding assay for BRD3; details: biochemical
Outline: (§3)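 Eight-point dilution series tested against in-house His-BRD2(60-472), BRD3(20-477) or BRD4(44-477) (45 nM in dispensed solution) binding acetyl-histone H4 (AcK5,8,12,16; 60 nM in dispensed solution). Incubation 35 min at 30 °C, pH 7.5 HEPES buffer; detection by TR-FRET using Eu-anti-His6 and streptavidin-allophycocyanin.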

[6] = target: His-Brd4(44-477) (Homo sapiens (Human), UniProt O60885); assay: TR-FRET in-vitro binding assay for BRD4; details: biochemical
Outline: as §3

[7] = target: His-Brd2(60-472) (Homo sapiens (Human), UniProt P25440); assay: TR-FRET in-vitro binding assay for BRD2; details: biochemical
Outline: as §3

His-Brd3(20-477), sequence (Q15059 20-477): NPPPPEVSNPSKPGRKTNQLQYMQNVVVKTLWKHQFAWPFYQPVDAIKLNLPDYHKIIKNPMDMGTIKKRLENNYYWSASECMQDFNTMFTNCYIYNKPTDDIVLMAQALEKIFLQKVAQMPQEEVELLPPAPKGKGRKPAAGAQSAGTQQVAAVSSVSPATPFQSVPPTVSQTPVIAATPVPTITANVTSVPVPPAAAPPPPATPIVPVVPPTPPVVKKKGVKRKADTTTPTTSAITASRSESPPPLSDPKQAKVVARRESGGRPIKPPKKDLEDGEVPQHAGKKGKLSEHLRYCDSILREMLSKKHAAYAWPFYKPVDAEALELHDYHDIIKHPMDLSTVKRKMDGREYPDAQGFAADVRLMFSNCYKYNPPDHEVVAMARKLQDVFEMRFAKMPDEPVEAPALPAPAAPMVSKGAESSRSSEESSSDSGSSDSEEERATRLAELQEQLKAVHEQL
His-CREBBP (1081-1197) bromodomain, sequence (Q92793 1081-1197): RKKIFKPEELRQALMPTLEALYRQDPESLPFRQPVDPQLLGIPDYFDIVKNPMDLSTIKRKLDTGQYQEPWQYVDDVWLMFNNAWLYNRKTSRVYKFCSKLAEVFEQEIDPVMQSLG
His-Brd2(60-472), sequence (P25440 60-472): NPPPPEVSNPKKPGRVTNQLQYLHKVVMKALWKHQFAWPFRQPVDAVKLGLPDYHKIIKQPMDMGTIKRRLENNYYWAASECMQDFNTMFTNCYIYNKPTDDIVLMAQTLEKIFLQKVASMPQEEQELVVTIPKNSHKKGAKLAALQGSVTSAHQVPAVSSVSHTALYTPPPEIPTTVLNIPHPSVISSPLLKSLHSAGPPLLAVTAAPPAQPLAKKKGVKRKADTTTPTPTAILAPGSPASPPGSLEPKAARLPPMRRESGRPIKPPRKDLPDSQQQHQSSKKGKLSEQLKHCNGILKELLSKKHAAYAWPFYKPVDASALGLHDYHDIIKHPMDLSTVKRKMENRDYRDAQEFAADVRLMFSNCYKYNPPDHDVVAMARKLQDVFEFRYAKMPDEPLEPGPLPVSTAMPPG

With `Cc1nn(C2CC2)c2c1[C@@H](c1ccc(Cl)cc1)N(c1cc(C)c3nnc(C)n3c1)C2=O` [Example 119, (R)-4-(4-chlorophenyl)-1-cyclopropyl-5-(3,8-dimethyl-[1,2,4]triazolo[4,3-a]pyridin-6-yl)-3-methyl-4,5-dihydropyrrolo[3,4-c]pyrazol-6(1H)-one] the IC (total growth inhibition) [1] was 0.0226 µM, the pIC50 [2] was 5.05 and the IC (total growth inhibition) [3] was > 10 µM. It also gave an IC (total growth inhibition) [4] of 0.0116 µM and a pIC50 [5] of 7.77.
`COc1ccccc1-n1nc(C)c2c1C(=O)N(c1cc(C)c3nnc(C)n3c1)C2c1ccc(Cl)cc1F` (stereo not shown) [Example 187, 4-(4-chloro-2-fluorophenyl)-5-(3,8-dimethyl-[1,2,4]triazolo[4,3-a]pyridin-6-yl)-1-(2-methoxyphenyl)-3-methyl-4,5-dihydropyrrolo[3,4-c]pyrazol-6(1H)-one] gave a pIC50 [6] of 7.57, an IC (total growth inhibition) [1] of 0.223 µM and a pIC50 [2] of 4.48. For the same molecule, the IC (total growth inhibition) [3] was > 10 µM, the IC (total growth inhibition) [4] was 0.209 µM and the pIC50 [5] was 7.38.
For `COCc1nn(C2CC2)c2c1[C@@H](c1ccc(Cl)cc1)N(c1cc(C)c3nnc(C)n3c1)C2=O` [Example 163, […]], the pIC50 [6] was > 7.96, the IC (total growth inhibition) [1] was 0.0461 µM and the pIC50 [2] was 4.96. The IC (total growth inhibition) [3] was > 10 µM and the IC (total growth inhibition) [4] was 0.022 µM.
With `COc1ncc(-n2nc3c(c2C(C)C)[C@H](c2ccc(Cl)cc2)N(c2cc(C)c4onc(C)c4c2)C3=O)c(OC)n1` [Example 61, (S)-4-(4-chlorophenyl)-2-(2,4-dimethoxypyrimidin-5-yl)-5-(3,7-dimethylbenzo[d]isoxazol-5-yl)-3-isopropyl-4,5-dihydropyrrolo[3,4-c]pyrazol-6(2H)-one] the pIC50 [6] was < 4.43, the IC (total growth inhibition) [1] was > 10 µM and the pIC50 [2] was < 4.43. The IC (total growth inhibition) [3] was > 10 µM, the IC (total growth inhibition) [4] was 1.09 µM and the pIC50 [5] was < 4.43.
For `Cc1n[nH]c2c1C(c1ccc(Cl)cc1F)N(c1cc(C)c3nnc(C)n3c1)C2=O` (stereo not shown) [Example 183, 4-(4-chloro-2-fluorophenyl)-5-(3,8-dimethyl-[1,2,4]triazolo[4,3-a]pyridin-6-yl)-3-methyl-4,5-dihydropyrrolo[3,4-c]pyrazol-6(2H)-one], the pIC50 [6] was 7.09, the IC (total growth inhibition) [1] was 0.314 µM and the pIC50 [2] was < 4.62. For the same molecule, the IC (total growth inhibition) [3] was > 10 µM, the IC (total growth inhibition) [4] was 0.126 µM and the pIC50 [5] was 7.12.
With `Cc1nn(C2CC2)c2c1C(c1ccc(Cl)cc1)N(c1cc(C)c3nnc(C)n3c1)C2=O` (stereo not shown) [Example 92, 4-(4-chlorophenyl)-1-cyclopropyl-5-(3,8-dimethyl-[1,2,4]triazolo[4,3-a]pyridin-6-yl)-3-methyl-4,5-dihydropyrrolo[3,4-c]pyrazol-6(1H)-one] the IC (total growth inhibition) [1] was 0.0395 µM, the pIC50 [2] was 4.83 and the IC (total growth inhibition) [3] was > 10 µM. It also gave an IC (total growth inhibition) [4] of 0.0175 µM and a pIC50 [5] of 7.57.
For `Cc1cc(N2C(=O)c3c(c(C4CC4)nn3C)[C@H]2c2ccc(Cl)cc2)cn2c(C)nnc12` [Example 164, (R)-4-(4-chlorophenyl)-3-cyclopropyl-5-(3,8-dimethyl-[1,2,4]triazolo[4,3-a]pyridin-6-yl)-1-methyl-4,5-dihydropyrrolo[3,4-c]pyrazol-6(1H)-one], the IC (total growth inhibition) [1] was 0.0173 µM, the pIC50 [2] was 5.29 and the IC (total growth inhibition) [3] was > 10 µM. For the same molecule, the IC (total growth inhibition) [4] was 0.0118 µM.
Work on `Cc1cc(N2C(=O)c3nn(C4CC4)c(C)c3[C@H]2c2ccc(Cl)cc2)cn(C)c1=O` [Example 21] yielded a pIC50 [7] of 7.32, a pIC50 [6] of 7.33 and an IC (total growth inhibition) [1] of 0.0687 µM. The IC (total growth inhibition) [3] was > 10 µM, the IC (total growth inhibition) [4] was 0.0378 µM and the pIC50 [5] was 7.37.
